Data set [1] has as its system male mice. The data set is described as follows: oral toxicity in mice (LD50, mortality over 14 days). The settings on record: male mice. The procedure: (§1) The toxicity of the products to be studied was investigated by the oral administration, using an esophageal tube, of each of the said products to male mice with a body weight of 18 to 22 g, divided into groups each containing 10 to 20 animals. The mortality was recorded over a 14-day period.

Data set [2] relates to convulsions induced by supra maximal electroshock (MCE). The data set can be described thus: animal or person. The settings on record: for Therapeutic index MCE (LD50/ED50): LD50 per os/ED50 per os, MCE convulsions. How it is done: (§2) The anticonvulsant properties were investigated on male mice, thirty minutes after the oral administration of the substances to be studied, by the induction of convulsive seizures.
These seizures are caused either by the intraperitoneal injection of pentetrazole (125 mg/kg) or by electrical stimulation of the cornea (supra maximal electroshock, abbreviated to MCE).

For data set [3], the system named is convulsions induced by pentetrazole. The data set can be described thus: animal or person. The settings on record: for Therapeutic index PTZ (LD50/ED50): LD50 per os/ED50 per os, PTZ convulsions.
Text: as §2

The test system of data set [4] is male mice. The data set is described as follows: in vivo. The class given is in vivo. The settings on record: for Protection index MCE (TD50/ED50) / Protection index PTZ (TD50/ED50): TD50 per os/ED50 per os; for Protection index MCE (TD50/ED50): MCE convulsions; for Protection index PTZ (TD50/ED50): PTZ convulsions; for TD50 (50% neurotoxic dose): per os, male mice, Rota-rod 30 min after administration, dose causing 50% of animals to fall, 30 min. The text has this: (§3) The animals (divided into groups each containing ten male mice per dose and per product) are installed on the rod and their fall is observed over the next two minutes.

A short description of data set [5]: oral toxicity in mice (LD50, mortality over 14 days). The settings on record: mouse, in vivo, po. The procedure: as §1
Another data set in a line: in vivo. The class given is in vivo. The settings on record: mouse, in vivo, po; per os, male mice, Rota-rod 30 min after administration; dose causing 50% of animals to fall; read-out: TD50 (50% neurotoxic dose).
Text: as §3
On the technique in general: The rotarod test checks motor coordination on a turning rod.

The mark [6] stands for this setting: oral (esophageal tube), groups of 10 to 20, 14 days, Table II.
[7] abbreviates: per os, repeated in Table IV, 20160 min.

`COc1ccc(N2CCN(C(=O)c3cccnc3)CC2)cc1` [Ex. 17] came in with an LD50 in the data set on male mice [1] (setting [6]) of more than 1000 mg/kg. Further, in data set [2] (po, 0.5 h), the “ED50 in respect of convulsions induced by MCE” value (“ED50 … by MCE” for short) was more than 200 mg/kg. Further, the “ED50 in respect of convulsions induced by PTZ” value (“ED50 … by PTZ” for short) in data set [3] (po, 0.5 h) turned out to be 200 mg/kg.
In turn, `Cc1cc(Cl)ccc1N1CCN(C(=O)c2cccnc2)CC1` [Ex. 23, 4-(4-chloro-2-methylphenyl)-1-nicotinoylpiperazine] showed an LD50 in the data set on male mice [1] (setting [6]) of more than 1000 mg/kg. In the data set with male mice [1] (setting [7]), this compound showed an LD50 of more than 1000 mg/kg. Also, in data set [2], the “Therapeutic index MCE (LD50/ED50)” value is on record as less than 5.0. Further, the “ED50 … by MCE” value in data set [2] (po, 0.5 h) is more than 200 mg/kg. The “Therapeutic index PTZ (LD50/ED50)” value in data set [3] is on record as more than 8.1. Also, in data set [3] (po, 0.5 h), the “ED50 … by PTZ” value was found to be 124 mg/kg. In addition, in the data set on male mice [4], the “Protection index MCE (TD50/ED50)” value turned out to be 4.5, the “Protection index PTZ (TD50/ED50)” value is given as 7.4 and the “TD50 (50% neurotoxic dose)” value stood at 650 mg/kg.
As to `Cc1ccc(Cl)cc1N1CCN(C(=O)c2cccnc2)CC1` [Ex. 25, 4-(5-chloro-2-methylphenyl)-1-nicotinoylpiperazine], the LD50 with male mice [1] (setting [6]) is reported as more than 1000 mg/kg. The LD50 in the data set with male mice [1] (setting [7]) was more than 1000 mg/kg. Moreover, the “Therapeutic index MCE (LD50/ED50)” value in data set [2] is more than 11.5. Besides, the “ED50 … by MCE” value in data set [2] (po, 0.5 h) is reported as 87 mg/kg. For the same compound, in data set [3], the “Therapeutic index PTZ (LD50/ED50)” value is on record as more than 12.7. The “ED50 … by PTZ” value in data set [3] (po, 0.5 h) was found to be 79 mg/kg. In addition, in the data set with male mice [4], the “Protection index MCE (TD50/ED50)” value worked out at 4.1, the “Protection index PTZ (TD50/ED50)” value was determined as 4.5 and the “TD50 (50% neurotoxic dose)” value was 355 mg/kg.
The compound `O=C(c1cccnc1)N1CCN(c2ccccc2)CC1` [Ex. 28] registered an LD50 in the data set on male mice [1] (setting [6]) of more than 1000 mg/kg. The “ED50 … by MCE” value in data set [2] (po, 0.5 h) is reported as more than 200 mg/kg. The “ED50 … by PTZ” value in data set [3] (po, 0.5 h) is more than 200 mg/kg.
As for `CCCC(CCC)C(=O)[O-].[Na+]` [VALP, sodium valproate, reference compound], the LD50 at 336 h in data set [5] was determined as 977 mg/kg. The compound further had an LD50 in the data set with male mice [1] (setting [7]) of 977 mg/kg. In addition, in data set [2], the “Therapeutic index MCE (LD50/ED50)” value is reported as 4.0. Also, the ED50 in data set [2] (Mus musculus, po, 0.5 h, read-out: ED50 in respect of convulsions induced by MCE) worked out at 242 mg/kg; in data set [3] (Mus musculus, po, 0.5 h, read-out: ED50 in respect of convulsions induced by PTZ), 244 mg/kg. Besides, the “Therapeutic index PTZ (LD50/ED50)” value in data set [3] is given as 4.0. The TD50 at 0.5 h in the data set “in vivo” was found to be 670 mg/kg. The “Protection index MCE (TD50/ED50)” value with male mice [4] worked out at 2.8. Also, in the data set with male mice [4], the “Protection index PTZ (TD50/ED50)” value turned out to be 2.7.

Usually LD50 stands for the dose expected to kill half of the subjects tested. A word on the ED50: it is the dose at which the effect has come halfway, by size or by number of responders. As a reminder, the TD50 is the dose at which the toxic effect under study appears in half of the subjects.

Values taken from patent US4880807A, “Nicotinoylpiperazines useful for treatment of convulsions” (Institut De Recherches Chimiques et Biologiques Appliquees …, priority 1987, dated 1989).
